target: human GPR17 short isoform (Homo sapiens, UniProt Q13304); test: GPR17 cAMP assay (TR-FRET cAMP quantification, antagonist mode); assay type: cell-based; conditions: CHO-K1 cells stably expressing human GPR17 short isoform; EC80 of agonist MDL29,951; forskolin 15µM; IBMX 0.5mM; 30 minutes at room temperature; read-out: hGPR17 cAMP IC50
Experimental: GPR17 cAMP Assay Protocol:
CHO-K1 cells stably expressing vector containing untagged human GPR17 short isoform (Roche) were cultured at 37°C / 5% CO2 in DMEM (Dulbecco's Modified Eagle Medium):F-12 (1:1) supplemented with 10% foetal bovine serum and 400 µg/ml Geneticin.
Changes in intracellular cyclic adenosine monophosphate (cAMP) levels were quantified using the Nano-TRF Detection Assay kit (Roche Diagnostics, Cat. No. 05214386001). This assay allows for direct cAMP quantification in a homogeneous solution. cAMP is detected based on time-resolved fluorescence energy transfer (TR-FRET) and competitive binding of ruthenylated cAMP and endogenous cAMP to an anti-cAMP monoclonal antibody labeled with AlexaFluor-700. The Ruthenium complex serves as the FRET donor and transfers energy to AlexaFluor-700. The FRET signal is inversely proportional to the cAMP concentration.
CHO-GPR17S cells were detached with Accutase and resuspended in assay buffer consisting of Hank's Balanced Salt Solution (HBSS), 10mM HEPES (4-(2-hydroxyethyl) piperazine-1-ethanesulfonic acid solution) and 0.1% bovine serum albumin (pH 7.4). The cells were seeded in black 384-well plates (Corning) at a density of 10'000 cells / 20µl assay buffer until the addition of compounds.
Test antagonist compounds were serially diluted in dimethyl sulfoxide (DMSO) and spotted in 384-well plates. The compounds were then diluted in HBSS buffer supplemented with an EC80 concentration of MDL29,951 (3-(2-Carboxy-4,6-dichloroindol-3-yl)propionic acid) (GPR17 agonist) plus 3-Isobutyl-1-methylxanthine (IBMX) (0.5mM final concentration) and added to the cells at room temperature. Forskolin (15µM final concentration) was added 5 minutes after the test compounds and the cells were incubated at room temperature for 30 minutes. The assay was stopped by adding cAMP detection mix (containing detergents for cell lysis) for 90 minutes at room temperature.
Cellular cAMP was measured using a Paradigm reader (Molecular Devices). The raw data was used to calculate the FRET signal based on the assay's P-factor as per cAMP kit instructions. The data was normalized to the maximal activity of a reference antagonist and dose response curves were fitted to the percent activity of the test compounds using a sigmoidal dose response model (Genedata Screener).
Results in the hGPR17 cAMP assay are provided for compounds of formula I in Table 1 Table 1: […]

Sequence of human GPR17 short isoform (Q13304 29-367): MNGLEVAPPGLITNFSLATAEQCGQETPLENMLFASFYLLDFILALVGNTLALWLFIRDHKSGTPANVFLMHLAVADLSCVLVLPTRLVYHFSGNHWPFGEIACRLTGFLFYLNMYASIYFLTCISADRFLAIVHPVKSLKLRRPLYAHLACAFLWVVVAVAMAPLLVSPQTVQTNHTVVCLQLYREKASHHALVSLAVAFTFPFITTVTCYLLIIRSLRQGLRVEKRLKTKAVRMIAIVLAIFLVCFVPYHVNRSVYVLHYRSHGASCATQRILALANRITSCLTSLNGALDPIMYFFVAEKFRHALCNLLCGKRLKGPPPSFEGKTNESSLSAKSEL

| SMILES | IC50 [nM] |
| --- | --- |
| COc1nc(NS(=O)(=O)c2c[nH]c3c(-c4cnccn4)cccc23)nc(OC)c1OCC(F)F [Example 30, N-[5-(2,2-difluoroethoxy)-4,6-dimethoxy-pyrimidin-2-yl]-7-pyrazin-2-yl-1H-indole-3-sulfonamide] | 130 |
| COc1nc(NS(=O)(=O)c2c[nH]c3c(-c4cnccn4)c(F)ccc23)nc(OC)c1CC(F)F [Example 31, N-[5-(2,2-difluoroethyl)-4,6-dimethoxy-pyrimidin-2-yl]-6-fluoro-7-pyrazin-2-yl-1H-indole-3-sulfonamide] | 84 |
| COc1nc(NS(=O)(=O)c2c[nH]c3c(-c4cnccn4)c(F)ccc23)nc(OC)c1OCCF [Example 32, 6-fluoro-N-[5-(2-fluoroethoxy)-4,6-dimethoxy-pyrimidin-2-yl]-7-pyrazin-2-yl-1H-indole-3-sulfonamide] | 129 |
| COc1nc(NS(=O)(=O)c2c[nH]c3c(-c4cnccn4)c(F)ccc23)nc(OC)c1OCC(F)F [Example 33, N-[5-(2,2-difluoroethoxy)-4,6-dimethoxy-pyrimidin-2-yl]-6-fluoro-7-pyrazin-2-yl-1H-indole-3-sulfonamide] | 132 |
| COc1nc(NS(=O)(=O)c2c[nH]c3c(-c4cnccn4)c(F)ccc23)nc(OC)c1OC(F)F [Example 34, N-[5-(difluoromethoxy)-4,6-dimethoxy-pyrimidin-2-yl]-6-fluoro-7-pyrazin-2-yl-1H-indole-3-sulfonamide] | 407 |
| COc1nc(NS(=O)(=O)c2c[nH]c3c(-c4ncccn4)c(Br)ccc23)nc(OC)c1CC(F)F [Example 35, 6-bromo-N-[5-(2,2-difluoroethyl)-4,6-dimethoxy-pyrimidin-2-yl]-7-(2-pyrimidyl)-1H-indole-3-sulfonamide] | 34 |
| COc1nc(NS(=O)(=O)c2c[nH]c3c(-c4ncccn4)c(Br)ccc23)nc(OC)c1OC(F)F [Example 36, 6-bromo-N-[5-(difluoromethoxy)-4,6-dimethoxy-pyrimidin-2-yl]-7-(2-pyrimidyl)-1H-indole-3-sulfonamide] | 42 |
| COc1nc(NS(=O)(=O)c2c[nH]c3c(-c4ncccn4)c(Br)ccc23)nc(OC)c1OCCF [Example 37, 6-bromo-N-[5-(2-fluoroethoxy)-4,6-dimethoxy-pyrimidin-2-yl]-7-(2-pyrimidyl)-1H-indole-3-sulfonamide] | 67 |
| COc1nc(NS(=O)(=O)c2c[nH]c3c(-c4ncccn4)c(Br)ccc23)nc(OC)c1OCC(F)F [Example 38, 6-bromo-N-[5-(2,2-difluoroethoxy)-4,6-dimethoxy-pyrimidin-2-yl]-7-(2-pyrimidyl)-1H-indole-3-sulfonamide] | 54 |
| COc1nc(NS(=O)(=O)c2c[nH]c3c(-c4cnccn4)c(Br)ccc23)nc(OC)c1CC(F)F [Example 39, 6-bromo-N-[5-(2,2-difluoroethyl)-4,6-dimethoxy-pyrimidin-2-yl]-7-pyrazin-2-yl-1H-indole-3-sulfonamide] | 17 |
| COc1nc(NS(=O)(=O)c2c[nH]c3c(-c4cnccn4)c(Br)ccc23)nc(OC)c1OC(F)F [Example 40, 6-bromo-N-[5-(difluoromethoxy)-4,6-dimethoxy-pyrimidin-2-yl]-7-pyrazin-2-yl-1H-indole-3-sulfonamide] | 9 |
| COc1nc(NS(=O)(=O)c2c[nH]c3c(-c4cnccn4)c(Br)ccc23)nc(OC)c1OCC(F)F [Example 41, 6-bromo-N-[5-(2,2-difluoroethoxy)-4,6-dimethoxy-pyrimidin-2-yl]-7-pyrazin-2-yl-1H-indole-3-sulfonamide] | 15 |
| COc1nc(NS(=O)(=O)c2c[nH]c3c(-c4cnc(F)cn4)c(Cl)ccc23)nc(OC)c1OCC(F)F [Example 42, 6-chloro-N-[5-(2,2-difluoroethoxy)-4,6-dimethoxy-pyrimidin-2-yl]-7-(5-fluoropyrazin-2-yl)-1H-indole-3-sulfonamide] | 38 |
| COc1nc(NS(=O)(=O)c2c[nH]c3c(-c4cccnn4)c(Br)ccc23)nc(OC)c1CC(F)F [Example 43, 6-bromo-N-[5-(2,2-difluoroethyl)-4,6-dimethoxy-pyrimidin-2-yl]-7-pyridazin-3-yl-1H-indole-3-sulfonamide] | 32 |
| COc1nc(NS(=O)(=O)c2c[nH]c3c(-c4ncccn4)c(C(F)F)ccc23)nc(OC)c1OCCF [Example 44, 6-(difluoromethyl)-N-[5-(2-fluoroethoxy)-4,6-dimethoxy-pyrimidin-2-yl]-7-(2-pyrimidyl)-1H-indole-3-sulfonamide] | 182 |
| COc1nc(NS(=O)(=O)c2c[nH]c3c(-c4ncc[nH]4)c(F)ccc23)nc(OC)c1OCC(F)F [Example 45, N-[5-(2,2-difluoroethoxy)-4,6-dimethoxy-pyrimidin-2-yl]-6-fluoro-7-(1H-imidazol-2-yl)-1H-indole-3-sulfonamide] | 50 |
| COc1nc(NS(=O)(=O)c2c[nH]c3c(-c4ncn(C)c4C)c(Cl)ccc23)nc(OC)c1OCC(F)F [Example 46, 6-chloro-N-[5-(2,2-difluoroethoxy)-4,6-dimethoxy-pyrimidin-2-yl]-7-(1,5-dimethylimidazol-4-yl)-1H-indole-3-sulfonamide] | 34 |
| COc1nc(NS(=O)(=O)c2c[nH]c3c(-c4cn(C)cn4)c(Cl)ccc23)nc(OC)c1OCC(F)F [Example 47, 6-chloro-N-[5-(2,2-difluoroethoxy)-4,6-dimethoxy-pyrimidin-2-yl]-7-(1-methylimidazol-4-yl)-1H-indole-3-sulfonamide] | 17 |
| COc1nc(NS(=O)(=O)c2c[nH]c3c(-c4ncccn4)c(C)ccc23)nc(OC)c1OCC(F)F [Example 48, N-[5-(2,2-difluoroethoxy)-4,6-dimethoxy-pyrimidin-2-yl]-6-methyl-7-(2-pyrimidyl)-1H-indole-3-sulfonamide] | 86 |
| COc1nc(NS(=O)(=O)c2c[nH]c3c(-c4ncccn4)c(C(F)F)ccc23)nc(OC)c1OCC(F)F [Example 49, N-[5-(2,2-difluoroethoxy)-4,6-dimethoxy-pyrimidin-2-yl]-6-(difluoromethyl)-7-(2-pyrimidyl)-1H-indole-3-sulfonamide] | 301 |
| COc1nc(NS(=O)(=O)c2c[nH]c3c(-c4ncccn4)c(C(F)F)ccc23)nc(OC)c1OC(F)F [Example 50, N-[5-(difluoromethoxy)-4,6-dimethoxy-pyrimidin-2-yl]-6-(difluoromethyl)-7-(2-pyrimidyl)-1H-indole-3-sulfonamide] | 288 |
| COc1nc(NS(=O)(=O)c2c[nH]c3c(-c4ncccn4)c(C(F)F)ccc23)nc(OC)c1CC(F)F [Example 51, N-[5-(2,2-difluoroethyl)-4,6-dimethoxy-pyrimidin-2-yl]-6-(difluoromethyl)-7-(2-pyrimidyl)-1H-indole-3-sulfonamide] | 74 |
| COc1nc(NS(=O)(=O)c2c[nH]c3c(-c4ncccn4)c(C)ccc23)nc(OC)c1CC(F)F [Example 52, N-[5-(2,2-difluoroethyl)-4,6-dimethoxy-pyrimidin-2-yl]-6-methyl-7-(2-pyrimidyl)-1H-indole-3-sulfonamide] | 22 |
| COc1nc(NS(=O)(=O)c2c[nH]c3c(-c4nccnc4C)cccc23)nc(OC)c1CC(F)F [Example 53, N-[5-(2,2-difluoroethyl)-4,6-dimethoxy-pyrimidin-2-yl]-7-(3-methylpyrazin-2-yl)-1H-indole-3-sulfonamide] | 43 |
| COc1nc(NS(=O)(=O)c2c[nH]c3c(-c4nccnc4C)cccc23)nc(OC)c1OCC(F)F [Example 54, N-[5-(2,2-difluoroethoxy)-4,6-dimethoxy-pyrimidin-2-yl]-7-(3-methylpyrazin-2-yl)-1H-indole-3-sulfonamide] | 64 |
| COc1nc(NS(=O)(=O)c2c[nH]c3c(-c4ncccn4)c(C)ccc23)nc(OC)c1OC(F)F [Example 55, N-[5-(difluoromethoxy)-4,6-dimethoxy-pyrimidin-2-yl]-6-methyl-7-(2-pyrimidyl)-1H-indole-3-sulfonamide] | 157 |
| COc1nc(NS(=O)(=O)c2c[nH]c3c(-c4ncccn4)c(C)ccc23)nc(OC)c1OCCF [Example 56, N-[5-(2-fluoroethoxy)-4,6-dimethoxy-pyrimidin-2-yl]-6-methyl-7-(2-pyrimidyl)-1H-indole-3-sulfonamide] | 129 |
| COc1nc(NS(=O)(=O)c2c[nH]c3c(-c4cccnn4)c(C)ccc23)nc(OC)c1OCC(F)F [Example 57, N-[5-(2,2-difluoroethoxy)-4,6-dimethoxy-pyrimidin-2-yl]-6-methyl-7-pyridazin-3-yl-1H-indole-3-sulfonamide] | 109 |

Reference: patent EP4562003B1, “NOVEL 7-SUBSTITUTED INDOLE SULFONAMIDE DERIVATIVES” (F. Hoffmann-La Roche AG, priority 2022, dated 2024)
